Assay results taken from US11958812B2, “3, 5-disubstituted pyridine and 3, 5-disubstituted pyridazine derivatives and pharmaceutical use of same” (MITSUBISHI TANABE PHARMA CORPORATION, priority 2018, dated 2024).

Molecular target: T1, ATX activity in plasma (Mus musculus, UniProt Q9R1E6)
T1 construct: from tissue; host or cells: plasma of female C57BL/6J mice (bleomycin-induced lung fibrosis model)
Experiment: ATX activity in plasma in the mouse bleomycin-induced lung fibrosis model
Assay type: in vivo, female C57BL/6J mouse
Conditions: 30 mg/kg, bid, oral, 14 days; FIG. 5
Description: A compound administration solution prepared by wet pulverization in a mixer mill (type: MM400) for 10 min and adjusting to a given concentration with 0.5% aqueous carboxymethylcellulose solution was orally administered to male Wistar rat (5-week-old when used) at 5 mL/kg. Blood samples were collected from the cervical vein over time at 8 to 24 hr after administration. The blood was heparin-treated using a micro blood collection tube Capiject (CJ-AL, TERUMO CORPORATION), and the plasma was separated by centrifugation (4° C., 12,000 rpm, for 2 min), and preserved at −80° C. […] The measurement of ATX activity in plasma was evaluated using the concentration of choline in the plasma, which was liberated from lysophosphatidylcholine (substrate of ATX) by the lysophospholipase D activity of ATX, as an index. […] The reaction mixture (10 μL) after reaction for 6 hr and 45 μL of reagent R^1 solution (100 mM Tris-HCl pH 8.0, 0.5 mM TOOS, 10 U/mL peroxidase, 0.01% Triton X-100) were added and blended and absorbance at 550-700 nm was measured and used as a prevalue. […] 1 mM choline chloride was diluted with 2× assay buffer up to 7 steps in 2-fold serial dilution, R^1 solution was treated similarly and the absorbance was measured. […]
At 14 days from the bleomycin administration, plasma, BALF and lung tissue were collected. BALF was recovered and the concentration of LPA (18:2) in BALF (FIG. 6) was measured. […]

## COc1ccc(-c2cnnc(OC[C@H]3CC[C@H](C(F)(F)F)CC3)c2)nc1[C@H]1C[C@@H]1C(=O)O [Example 5, (1S,2S)-2-[3-methoxy-6-(6-{[trans-4-(trifluoromethyl)cyclohexyl]methoxy}pyridazin-4-yl)pyridin-2-yl]cyclopropanecarboxylic Acid]
  ATX activity in the plasma: suppressed ATX activity in the plasma completely
